Counter-ions that a name gives are not always drawn.
Key:
[1] = molecular target: T1, human GPR10 (Homo sapiens (Human), UniProt P49683); assay: Inhibitory activity on binding of [3H]-PrRP to GPR10 (HEK 293 cell membrane fraction); conditions: [3H]-PrRP 1 nM, human GPR10-expressing HEK 293 cell membrane fraction; Ki from IC50 by Cheng-Prussoff formula
Outline: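 Competition with [3H]-PrRP (1 nM final) for membranes from human GPR10-expressing HEK293 cells, 90 min at room temperature in HEPES/EDTA buffer pH 7.4; filtration and scintillation counting.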

[2] = molecular target: T1, human GPR10; assay: Antagonistic activity on PrRP-induced intracellular calcium mobilization in human GPR10-expressing HEK293 cells; format: cell-based; conditions: PrRP 1 nM-induced intracellular calcium mobilization, Fluo-8
Method: Pharmacological Test 2 Antagonistic Activity on GPR10 Using Human GPR10-Expressing HEK293 Cells.
Antagonistic activity of test compounds on PrRP-induced intracellular calcium mobilization was evaluated using GPR10-expressing HEK293 cells.
HEK293 cells expressing human GPR10 were maintained in Dulbecco's Modified Eagles' medium supplemented with 10% fetal bovine serum, 1% penicillin-streptomycin and 20 mM HEPES at 37° C. in a 5% CO2 incubator. GPR10-expressing HEK293 cells were placed in poly-D-lysine coated 96-well culture plates and cultured for 18-24 hr before the test at a density of 3×10^4 cells/well. […] The cells were incubated with test compounds for 15 min at room temperature, and then PrRP (the final concentration, 1 nM) was added into the medium. The changes in intracellular calcium-dependent fluorescence were monitored using a fluorescence imaging plate reader (FDSS3000, Hamamatsu Photonics K.K.). Fluo-8 fluorescence was measured with excitation at 490 nm and emission at 520 nm. The calcium-dependent fluorescence intensity was calculated by subtracting basal intensity (average intensity for 30 sec before agonist stimulation) from peak intensity for 60 sec after PrRP-stimulation, and then IC50 values were determined by nonlinear curve-fitting program, GraphPad Prism 5.

T1 sequence (P49683 whole entry): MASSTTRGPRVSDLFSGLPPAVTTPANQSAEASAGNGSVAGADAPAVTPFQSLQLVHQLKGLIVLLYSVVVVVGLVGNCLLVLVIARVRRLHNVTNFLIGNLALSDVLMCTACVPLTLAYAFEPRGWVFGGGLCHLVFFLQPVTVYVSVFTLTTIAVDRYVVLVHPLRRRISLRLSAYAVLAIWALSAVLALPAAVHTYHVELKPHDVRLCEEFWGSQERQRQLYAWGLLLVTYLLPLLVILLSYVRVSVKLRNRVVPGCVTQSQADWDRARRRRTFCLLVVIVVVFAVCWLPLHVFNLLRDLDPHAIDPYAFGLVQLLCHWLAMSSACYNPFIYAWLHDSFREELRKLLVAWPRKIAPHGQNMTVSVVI

| SMILES | Ki [1] [nM] | IC50 [2] [nM] |
| --- | --- | --- |
| COn1c(N[C@@H](C)c2ccc(Cl)cc2)nc2c(c1=O)CN(C(=O)COc1ccc(Cl)cc1)CC2 [Example 2430, 6-[2-(4-chlorophenoxy)acetyl]-2-[(S)-1-(4-chlorophenyl)ethylamino]-3-methoxy-5,6,7,8-tetrahydro-3H-pyrido[4,3-d]pyrimidin-4-one] | 15 | 1180 |
| C[C@H](Nc1nc2c(c(=O)n1N(C)C)CN(C(=O)COc1ccc(Cl)cc1)CC2)c1ccc(Cl)cc1 [Example 2431, 6-[2-(4-chlorophenoxy)acetyl]-2-[(S)-1-(4-chlorophenyl)ethylamino]-3-dimethylamino-5,6,7,8-tetrahydro-3H-pyrido[4,3-d]pyrimidin-4-one] | 207 | 3600 |
| C[C@H](Nc1nc2c(c(=O)n1N1CCOCC1)CN(C(=O)c1ccc(C#N)cc1)CC2)c1ccc(C(F)(F)F)cc1 [Example 2432, 4-{3-morpholin-4-yl-4-oxo-2-[(S)-1-(4-trifluoromethylphenyl)ethylamino]-3,5,7,8-tetrahydro-4H-pyrido[4,3-d]pyrimidine-6-carbonyl}benzonitrile hydrochloride] | 36 | 238 |
| C#CCCn1c(N[C@@H](C)c2ccc(C(F)(F)F)cc2)nc2c(c1=O)CN(C(=O)c1ccc(C#N)cc1)CC2 [Example 2433, 4-{3-(3-butynyl)-4-oxo-2-[(S)-1-(4-trifluoromethylphenyl)ethylamino]-3,5,7,8-tetrahydro-4H-pyrido[4,3-d]pyrimidine-6-carbonyl}benzonitrile] | 5 | 62 |
| C#CCCn1c(N[C@@H](C)c2ccc(C(F)(F)F)cc2)nc2c(c1=O)CN(C(=O)c1ccc(C#N)cc1F)CC2 [Example 2435, 4-{3-(3-butynyl)-4-oxo-2-[(S)-1-(4-trifluoromethylphenyl)ethylamino]-3,5,7,8-tetrahydro-4H-pyrido[4,3-d]pyrimidine-6-carbonyl}-3-fluorobenzonitrile] | 2 | 68 |
| COn1c(NC(c2ccc(Cl)cc2)C(C)C)nc2c(c1=O)CN(C(=O)c1ccc(Cl)cc1)CC2 (centres unmarked) [Example 2441, 6-(4-chlorobenzoyl)-2-[1-(4-chlorophenyl)-2-methylpropylamino]-3-methoxy-5,6,7,8-tetrahydro-3H-pyrido[4,3-d]pyrimidin-4-one] | 37 | 4490 |
| CC#CCn1c(N[C@@H](C)c2ccc(C(F)(F)F)cc2)nc2c(c1=O)CN(C(=O)c1cnc3ccccc3c1)CC2 [Example 2446, 3-(2-butynyl)-6-(quinoline-3-carbonyl)-2-[(S)-1-(4-trifluoromethylphenyl)ethylamino]-5,6,7,8-tetrahydro-3H-pyrido[4,3-d]pyrimidin-4-one] | 28 | 2790 |
| CC#CCn1c(N[C@@H](C)c2ccc(C(F)(F)F)cc2)nc2c(c1=O)CN(C(=O)c1ccc3ccccc3n1)CC2 [Example 2449, 3-(2-butynyl)-6-(quinoline-2-carbonyl)-2-[(S)-1-(4-trifluoromethylphenyl)ethylamino]-5,6,7,8-tetrahydro-3H-pyrido[4,3-d]pyrimidin-4-one] | 24 | 3350 |
| COn1c(N[C@@H](C)c2ccc(C(F)(F)F)cc2)nc2c(c1=O)CN(C(=O)c1ccc(C)c(C)c1)CC2 [Example 2452, 6-(3,4-dimethylbenzoyl)-3-methoxy-2-[(S)-1-(4-trifluoromethylphenyl)ethylamino]-5,6,7,8-tetrahydro-3H-pyrido[4,3-d]pyrimidin-4-one] | 4 | 1030 |
| C[C@H](Nc1nc2c(c(=O)n1N1CCOCC1)CN(C(=O)c1ccc(C#N)cc1F)CC2)c1ccc(C(F)(F)F)cc1 [Example 2463, 3-fluoro-4-{3-morpholin-4-yl-4-oxo-2-[(S)-1-(4-trifluoromethylphenyl)ethylamino]-3,5,7,8-tetrahydro-4H-pyrido[4,3-d]pyrimidine-6-carbonyl}benzonitrile hydrochloride] | 3 | 187 |

— patent US9206173B2, “Heterocyclic compounds for the treatment of stress-related conditions” (OTSUKA PHARMACEUTICAL CO., LTD., priority 2009, dated 2015)
